Laboratory results as given in patent US6545028B2, “Chemical compounds having ion channel blocking activity for the treatment of immune dysfunction” (NeuroSearch A/S, priority 1997, dated 2003).

Key:
[1] = target: human placenta Ca^2+-activated, intermediate conductance potassium channel protein (IKCa) (Homo sapiens, UniProt O15554); experiment: Whole cell patch clamp on HEK293 or CHO cells transfected with the human IKCa channel; format: cell-based; settings: 1 μM Clotrimazole added to the bath solution; reversed by washout
Protocol: HEK293 or CHO tissue culture cells were grown in DMEM (Dulbecco's Modified Eagle Medium) supplemented with 10% FCS (foetal calf serum) at 37° C. in 5% CO2. One day prior to transfection, 10^6 cells were plated in a cell culture T25 flask. The following day, cells were transfected using lipofection (20 μL Lipofectamin™, Life Technologies, with 2.5 μg of the plasmid pNS2Z_hIK2 in a total volume of 540 μL). The lipofection mixture was overlaid on the cells and incubated at 37° C. for 5 hours.
The cells were then rinsed with regular media and plated to a 30 mm culture dish. 18-48 hours after, transfected cells were assayed for the presence of Ca^2+-activated, intermediate conductance potassium channel protein by electrophysiological measurements.
Whole cell currents were recorded using a pipette solution of 144 mM KCl, 1 mM EGTA, 9 mM NTA, 1.085 mM CaCl2, 5.54 mM MgCl2, and 10 mM HEPES (pH 7.2) and a bath solution of 144 mM KCl, 2 mM CaCl2, 1 mM MgCl2, 0.01% (w/v) BSA and 10 mM HEPES (pH=7.4). Current traces were recorded from cells containing human Ca^2+-activated, intermediate conductance potassium channels after application of voltage ramps (−100 mV to +100 mV, 200 ms duration).

[2] = test system: T cells; experiment: Inhibition of antigen induced T cell proliferation ([^3H]thymidine incorporation); format: cell-based; settings: Antigen (crude Candida albicans extract, 10 μg/ml), 144 hours culture
Protocol: The chemical compounds used according to the invention prevent immunological proliferation by selective inhibition of the Ca^2+-activated K-channels in T- and B-lymphocytes. This effect may be verified using various proliferation assays. In this experiment the proliferative assay described by Ødum et al. [Ødum N, Kanner S B, Ledbetter J A, & Svejgaard A; J. Immunol. 1993 150 (12) 5289-5298] was used.
Assays were performed in culture medium (RPMI 1640; available from Gibco, Grand island, N.Y.) supplemented with 10% pooled human serum, 2 mM L-glutamine, 100 μg/ml penicillin, and 100 μg/ml streptomycin (available from Novo Nordisk, Copenhagen, Denmark) in 96-well round bottom tissue culture plates (available from Nunc, Roskilde, Denmark) with a final volume of 200 μl.
T cells were preincubated for three hours with the test compounds before addition of antigen (crude Candida albicans extract, 10 μg/ml). T cells were cultured at 5×10^4 cells/well for 144 hours. Twelve hours before harvest, [^3H]thymidine ([…]) was added. The cells were harvested onto glass fibre filters, and the [^3H]thymidine incorporation was measured in a scintillation counter. The results were expressed as mean counts per minute (cpm) from triplicate cultures.

Compound	Effect on the Ca^2+-activated potassium current [1]	T Cell Proliferation ([2]; test compound 1 μM) [cpm × 10^−3]	T Cell Proliferation ([2]; test compound 5 μM) [cpm × 10^−3]	T Cell Proliferation ([2]; test compound 10 μM) [cpm × 10^−3]
Clc1ccccc1C(c1ccccc1)(c1ccccc1)n1ccnc1 [Clotrimazole, 1-[(2-chlorophenyl)-diphenyl-methyl]-1H-imidazole]	inhibition of the Ca^2+-activated potassium current	5.8	4.2	1.8
CCOC(=O)C1=C(C)NC(C)=C(C(=O)OC)C1c1cccc([N+](=O)[O-])c1 (stereo not shown) [Nitrendipine, 1,4-dihydro-2,6-dimethyl-4-(3-nitrophenyl)pyridine-3,5-dicarboxylic acid ethyl methyl ester]	–	5.6	3.8	4.0
